Data taken from patent US12227520B2 (priority 2019, dated 2025).
Where two headings read alike, the source gives them in different places.

Legend:
HIV-1 (IIIB) = experiment: Antiviral assay in MT-4 cells (HIV MT-4 antiviral assay); format: cell-based; conditions: Human immunodeficiency virus 1, IIIB, MT4, 120 h, HIV-1 (IIIB) in MT-4 cells, 5 days incubation; read-out: EC50
Method in brief: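 MT-4 cells infected with HIV-1 IIIB (1:250 diluted stock) and exposed to 1:3 serially diluted compound in RPMI with 10% FBS. Viability read by CellTiter-Glo luminescence after 5 days at 37° C; mock-infected cells and 5 μM AZT as controls.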

[1] = Cytotoxicity assay in MT-4 cells; format: cell-based, human; conditions: human, uninfected MT-4 cells, 5 days incubation; read-out: CC50
Method in brief: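 Infected MT-4 cells (HIV-1 IIIB, fresh 1:250 dilution of concentrated stock) or mock-infected cells exposed to compounds for 5 days at 37 °C. Viability by CellTiter-Glo luminescence; 5 μM AZT positive control, no-drug negative control. Uninfected cells used for cytotoxicity, with 10 μM puromycin as base-level cytotoxicity control.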

pLai RLuc reporter virus = experiment: microbe, parasite or virus in culture; format: cell-based, HIV; conditions: Human immunodeficiency virus 1, 72 h
Method in brief: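 MT-4 cells pre-infected 2 h at 37 °C with pLai RLuc virus, then exposed to 1:3 serial dilutions of compound in RPMI/10% FBS with or without 50% human serum for 72 h at 37 °C. Renilla luminescence read-out; serum shift = EC50(HS/CCM)/EC50(CCM).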

[2] = read-out: Antiviral Serum Shift RLuc 50% HS, HS/CCM (RPMI media, 10% FBS, 50% HS, 1% P/S), 72-h incubation
[3] = read-out: Antiviral Serum Shift RLuc CCM, CCM (RPMI media, 10% FBS, 1% P/S), 72-h incubation

SMILES | EC50 (HIV-1 (IIIB)) [nM] | CC50 at 5 days [1] [nM] | EC50 (pLai RLuc reporter virus; [2]) [nM] | EC50 (pLai RLuc reporter virus; [3]) [nM]
O=C(NCc1ccc(F)c(Cl)c1F)c1cn2c(c(O)c1=O)C(=O)N1CCCC[C@H]2C1 [Example 51, (7S)—N-(3-chloro-2,4-difluorobenzyl)-12-hydroxy-1,11-dioxo-1,4,5,6,7,11-hexahydro-3H-2,7-methanopyrido[1,2-a][1,4]diazonine-10-carboxamide] | 1.17 | 4390 | 2.14 | 0.215
C[C@@H]1CCC[C@H]2CN1C(=O)c1c(O)c(=O)c(C(=O)NCc3ccc(F)cc3F)cn12 [Example 52-1, (3R, 7S)—N-(2,4-difluorobenzyl)-12-hydroxy-3-methyl-1,11-dioxo-1,4,5,6,7,11-hexahydro-3H-2,7-methanopyrido[1,2-a][1,4]diazonine-10-carboxamide] | 2.15 | 13100 | 6.18 | 0.245
C[C@H]1CCC[C@@H]2CN1C(=O)c1c(O)c(=O)c(C(=O)NCc3ccc(F)cc3F)cn12 [Example 52-2, (3S, 7R)—N-(2,4-difluorobenzyl)-12-hydroxy-3-methyl-1,11-dioxo-1,4,5,6,7,11-hexahydro-3H-2,7-methanopyrido[1,2-a][1,4]diazonine-10-carboxamide] | 1.68 | 5840 | 2.19 | 0.384
C[C@@H]1CCC[C@@H]2CN1C(=O)c1c(O)c(=O)c(C(=O)NCc3ccc(F)cc3F)cn12 [Example 52-3, (3R, 7R)—N-(2,4-difluorobenzyl)-12-hydroxy-3-methyl-1,11-dioxo-1,4,5,6,7,11-hexahydro-3H-2,7-methanopyrido[1,2-a][1,4]diazonine-10-carboxamide] | 3.05 | 15500 | 114 | 0.589
C[C@H]1CCC[C@H]2CN1C(=O)c1c(O)c(=O)c(C(=O)NCc3ccc(F)cc3F)cn12 [Example 52-4, (3S, 7S)—N-(2,4-difluorobenzyl)-12-hydroxy-3-methyl-1,11-dioxo-1,4,5,6,7,11-hexahydro-3H-2,7-methanopyrido[1,2-a][1,4]diazonine-10-carboxamide] | 1.33 | 10300 | 7.54 | 0.218
O=C(NCc1ccc(F)cc1F)c1cn2c(c(O)c1=O)C(=O)N1CC[C@H](F)C[C@H]2C1 [Example 56-1, (5S, 7S)—N-(2,4-difluorobenzyl)-5-fluoro-12-hydroxy-1,11-dioxo-1,4,5,6,7,11-hexahydro-3H-2,7-methanopyrido[1,2-a][1,4]diazonine-10-carboxamide] | 3.99 | > 39400 | 1.91 | 0.967
O=C(NCc1ccc(F)cc1F)c1cn2c(c(O)c1=O)C(=O)N1CC[C@@H](F)C[C@H]2C1 [Example 56-2, (5R,7S)—N-(2,4-difluorobenzyl)-5-fluoro-12-hydroxy-1,11-dioxo-1,4,5,6,7,11-hexahydro-3H-2,7-methanopyrido[1,2-a][1,4]diazonine-10-carboxamide] | 1.86 | 17800 | 1.08 | 0.401
O=C(NCc1ccc(F)cc1F)c1cn2c(c(O)c1=O)C(=O)N1CC[C@H](F)C[C@@H]2C1 [Example 56-3, (5S, 7R)—N-(2,4-difluorobenzyl)-5-fluoro-12-hydroxy-1,11-dioxo-1,4,5,6,7,11-hexahydro-3H-2,7-methanopyrido[1,2-a][1,4]diazonine-10-carboxamide] | 5.24 | 16100 | 13.3 | 0.312
O=C(NCc1ccc(F)cc1F)c1cn2c(c(O)c1=O)C(=O)N1CC[C@@H](F)C[C@@H]2C1 [Example 56-4, (5R, 7R)—N-(2,4-difluorobenzyl)-5-fluoro-12-hydroxy-1,11-dioxo-1,4,5,6,7,11-hexahydro-3H-2,7-methanopyrido[1,2-a][1,4]diazonine-10-carboxamide] | 8.09 | 30500 | 15.4 | 2.16
O=C(NCc1ccc(F)cc1F)c1cn2c(c(O)c1=O)C(=O)N1CCCC3(CC3)[C@H]2C1 [Example 57-1, (7'S)—N-(2,4-difluorobenzyl)-12′-hydroxy-1′,11′-dioxo-1′,4′,5′,11′-tetrahydro-3′H,7′H-spiro[cyclopropane-1,6′-[2,7]methanopyrido[1,2-a][1,4]diazonine]-10′-carboxamide] | 1.22 | 6900 | 2.36 | 0.228
O=C(NCc1ccc(F)cc1F)c1cn2c(c(O)c1=O)C(=O)N1CCCC3(CC3)[C@@H]2C1 [Example 57-2, (7′R)—N-(2,4-difluorobenzyl)-12′-hydroxy-1′,11′-dioxo-1′,4′,5′,11′-tetrahydro-3′H,7′H-spiro[cyclopropane-1,6′-[2,7]methanopyrido[1,2-a][1,4]diazonine]-10′-carboxamide] | 1.77 | 8910 | 133 | 0.396
O=C(NCc1ccc(F)c(Cl)c1F)c1cn2c(c(O)c1=O)C(=O)N1CC=CC[C@H]2C1 [Example 58, (7S)—N-(3-chloro-2,4-difluorobenzyl)-12-hydroxy-1,11-dioxo-1,6,7,11-tetrahydro-3H-2,7-methanopyrido[1,2-a][1,4]diazonine-10-carboxamide] | 0.986 | 4150 | 1.67 | 0.25
C[C@]12CCCCN(C1)C(=O)c1c(O)c(=O)c(C(=O)NCc3c(F)cc(F)cc3F)cn12 [Example 59-1, (7S)-12-hydroxy-7-methyl-1,11-dioxo-N-(2,4,6-trifluorobenzyl)-1,4,5,6,7,11-hexahydro-3H-2,7-methanopyrido[1,2-a][1,4]diazonine-10-carboxamide] | 1.53 | 15000 | 26.4 | 0.361
C[C@@]12CCCCN(C1)C(=O)c1c(O)c(=O)c(C(=O)NCc3c(F)cc(F)cc3F)cn12 [Example 59-2, (7R)-12-hydroxy-7-methyl-1,11-dioxo-N-(2,4,6-trifluorobenzyl)-1,4,5,6,7,11-hexahydro-3H-2,7-methanopyrido[1,2-a][1,4]diazonine-10-carboxamide] | 2.15 | 18800 | 55.2 | 0.547
C[C@]1(F)CCCN2C[C@H]1n1cc(C(=O)NCc3ccc(F)cc3F)c(=O)c(O)c1C2=O [Example 60-1, (6S,7R)—N-(2,4-difluorobenzyl)-6-fluoro-12-hydroxy-6-methyl-1,11-dioxo-1,4,5,6,7,11-hexahydro-3H-2,7-methanopyrido[1,2-a][1,4]diazonine-10-carboxamide] | 1.77 | 13900 | 1.6 | 0.457
C[C@@]1(F)CCCN2C[C@@H]1n1cc(C(=O)NCc3ccc(F)cc3F)c(=O)c(O)c1C2=O [Example 60-3, (6R, 7S)—N-(2,4-difluorobenzyl)-6-fluoro-12-hydroxy-6-methyl-1,11-dioxo-1,4,5,6,7,11-hexahydro-3H-2,7-methanopyrido[1,2-a][1,4]diazonine-10-carboxamide] | 2.23 | 14800 | 14.8 | 0.376
